Experimental findings from US8030323B2, “Pyrazole carboxamide derivatives, pharmaceutical compositions and its preparation” (Beijing Molecule Science and Technology Co., Ltd., priority 2006, dated 2011) are described below.

The experiment concerns the target T1, CBI receptor (Rattus norvegicus, UniProt P20272).
T1 construct: Preparation of CBI receptor membrane protein in cerebellum of rat; from tissue; host or cells: Wistar rat cerebellum membranes
In words: Drug and CBI receptor competition binding experiment (rat cerebellum membrane protein). The following applies: CBI receptor membrane protein from Wistar rat cerebellum; 30° C. for 1 hour; 1×10^−7 to 1×10^−11 mole concentration; read-out: antagonistic concentration of 50% (EC50) to CBI receptor. The procedure:
2.1 Preparation of CBI receptor membrane protein in cerebellum of rat: Wistar rat, 220-260 g, female and male being not limited, was killed by cutting head, its cerebellum was separated rapidly, weighted and added to a buffer of Tris-HCl in 10 times of volume (50 mM, Tris HCl, 5 mM MgCl2.6H2O, 1 mM EDTA, 0.5% (W/V) BSA, pH 7.4), homogenized by using homogenizer at 15000 rpm/min, 30 seconds once, 5 times in total. The homogenized liquid was centrifuged at 400×g for 10 minutes, the supernatant was centrifuged at 39000×g for 10 minutes, the precipitate was collected, re-suspended with Tris-HCl buffer of pH 7.4 in 10 times of volume of the original weight, and centrifuged at 39000×g for 10 minutes, the precipitate was washed with the same buffer, and centrifuged at 39000×g for 10 minutes, the resultant precipitate was washed with Tris-HCl. […]
100 μg of receptor protein, 20 μl of the compound in Example 1 in mole concentration of 1×10^−7, 1×10^−8, 1×10^−9, 1×10^−10 and 1×10^−11, respectively were added successively, reacted at 30° C. for 1 hour, the sample was spotted on glass fiber filtration membrane, filtrated under negative pressure, washed with cold buffer for 10 times, 2 ml per time, the filtration membrane was unwatered, dried over oven, and placed in scintillation bottle, added 1 ml scintillating liquid, the radioactivity strength was detected by LS6500 scintillation counter.

T1 sequence (P20272 whole entry): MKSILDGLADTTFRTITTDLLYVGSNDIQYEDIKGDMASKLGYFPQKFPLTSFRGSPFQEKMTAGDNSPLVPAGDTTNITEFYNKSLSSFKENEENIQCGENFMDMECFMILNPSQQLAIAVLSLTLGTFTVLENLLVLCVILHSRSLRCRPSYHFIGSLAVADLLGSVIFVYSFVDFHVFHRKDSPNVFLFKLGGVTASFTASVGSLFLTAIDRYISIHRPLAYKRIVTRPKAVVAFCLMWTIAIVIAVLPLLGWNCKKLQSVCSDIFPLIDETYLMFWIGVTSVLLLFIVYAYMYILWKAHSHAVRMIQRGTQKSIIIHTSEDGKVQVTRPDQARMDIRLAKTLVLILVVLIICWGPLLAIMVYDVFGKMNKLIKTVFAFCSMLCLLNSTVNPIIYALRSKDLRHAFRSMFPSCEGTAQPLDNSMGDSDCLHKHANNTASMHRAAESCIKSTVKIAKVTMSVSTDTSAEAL

For `Cc1c(C(=O)NCc2cccnc2)nn(-c2ccc(Cl)cc2Cl)c1-c1ccc(Cl)cc1` [Example 1, N-(3-aminomethyl-pyridyl)-5-(4-chlorophenyl)-1-(2,4-dichlorophenyl)-4-methyl pyrazol-3-carboxamide], the EC50 came to 0.13 nM.
